Results: US8658664B2 (The Board of Regents of the University of Texas System, priority 2008, dated 2014)
Where a name gives a salt, the structure may show the parent alone.

Experiments:
[1] = system: pancreatic cancer cell line ASPC-1; experiment: Orthotopic mouse model for pancreatic cancer metastasis; format: in vivo; conditions: ASPC-1-GFP injected into pancreas of nude mice; 20 mice per group; saline control 60%
Experimental: An orthotopic mouse model for pancreatic cancer metastasis was established to test the effect of Cyc-T on pancreatic cancer. Green flourescent protein (GFP) was expressed in pancreatic cancer cell line ASPC-1, and then injected into pancreas of nude mice.
The effect of cyc-T was tested in the mouse model for pancreatic cancer metastasis described supra.

[2] = system: basal cell carcinomas (BCC); experiment: Skin tumor shrinkage in mouse BCC models, topical application; format: in vivo; conditions: topical application for 21 days; K14 Ptch1 knockout and K14 SmoM2-YFP mice
Experimental: Quantitative analysis was performed to calculate the percentage of tumor area in a given tissue area. Eight areas were used to measure the average value from each group, which was compared for the efficacy of the drugs.

hedgehog signaling = experiment: Motor neuron differentiation and embryonic body formation from embryonic stem cells; format: cell-based
Source text: To test stem cell functions, motor neuron differentiation experiments were used. First embryonic stem cells were used to form stem cell sphere (embryonic bodies, EB). In the presence of retinoic acid (RA) and sonic hedgehog or SMO agonist purmorphamine (AG), several types of neurons can be differentiated. These neurons can be distinguished by distinct markers. Hb9 is regarded as a marker for motor neuron (FIG. 6A).

CC1=C2CC3C(CC=C4CC(O)CCC43C)C2CCC12OC1CC(C)CNC1C2C (stereo not shown) [Cyclopamine tartrate]
frequency of tumor metastasis [1]: 32% | efficacy on hedgehog signaling-mediated skin tumors (percentage of tumor area in tissue area) [2]: very effective inhibitor for hedgehog signaling-mediated tumors | inhibition of hedgehog signaling / motor neuron differentiation (Hb9 marker) (hedgehog signaling; embryonic bodies with retinoic acid and sonic hedgehog or purmorphamine, compared with KAAD-cyclopamine): as effective as KAAD-cyclopamine | number and size of embryonic bodies (EBs) (hedgehog signaling; embryonic stem cell spheres, DAPI fluorescent microscopy): reduces the number and the size of EBs
